One molecule from patent US10575537B2, “Saury Maillard peptide and its preparation method and application” (South China University of Technology, priority 2015, dated 2020) can be followed below.

Assay [1] concerns rats with hyperuricemia induced by oteracil potassium. The experiment in a line: serum creatinine and urea nitrogen content in rats with hyperuricemia induced by oteracil potassium. The format is in vivo, rat. As to conditions: 30 days, peptide samples 200 mg/kg, allopurinol 50 mg/kg. An excerpt: (§1) As the index in the following examples, the experimental method of therapeutic effects of the peptide samples on the oteracil potassium-induced hyperuricemia in rats was as follow:
(§2) Animals: 140 SPF grade SD male rats, weight 200±20 g, purchased from Laboratory Animal Center of Guangzhou University of Chinese Medicine.
(§3) Animal grouping and modeling: Taking a total of 140 healthy male SD rats, and randomly dividing them into a normal control group (20 rats) and a model group (120 rats); the model group rats were gavage with oteracil potassium (daily dose: 2 g/kg) for 7 days, then the rat were anesthetized via intraperitoneally injecting 3% pentobarbital sodium (30 mg/kg) after the last administration, their blood was taken from conjunctival (0.5 ml), then centrifuging at 4° C. and 3000 r/min for 15 min, and taking the upper serum to determine the uric acid content, and the rats in the normal control group were treated with a constant volume of solvent by intragastric administration. The rats with the uric acid content above 110 μmol/L were identified to be successful in modeling. […]

The test system is the same in assay [2]. The experiment in a line: serum uric acid content in rats with hyperuricemia induced by oteracil potassium. The assay is classed as in vivo, rat.
Source text: as §1, §2
Animal grouping and modeling: Taking a total of 140 healthy male SD rats, and randomly dividing them into a normal control group (20 rats) and a model group (120 rats); the model group rats were gavage with oteracil potassium (daily dose: 2 g/kg) for 7 days, then the rat were anesthetized via intraperitoneally injecting 3% pentobarbital sodium (30 mg/kg) after the last administration, their blood was taken from conjunctival (0.5 ml), then centrifuging at 4° C. and 3000 r/min for 15 min, and taking the upper serum to determine the uric acid content, and the rats in the normal control group were treated with a constant volume of solvent by intragastric administration. The rats with the uric acid content above 110 μmol/L were identified to be successful in modeling.
The rats successful in modeling, according to the uric acid content, was randomly dividing into a model control group (constant volume solvent), a tested peptide sample group (200 mg/kg) and an allopurinol group (50 mg/kg) at 14 rats per group, and the rats were gavage with oteracil potassium (daily dose: 2 g/kg) at a dose of 10 ml/kg, with the model rats treated with a constant volume of distilled water. Administering 3% pentobarbital sodium (30 mg/kg) for 50 min at the end of administering the above-mentioned peptide samples for 10 days and 20 days, drawing the conjunctival blood (0.5 ml), and determining the serum uric acid content; after the 30th day of treatment with anti-gout peptides, drawing the celiac artery blood 5 ml after anesthesia with 3% pentobarbital sodium, and determining the content of serum creatinine and urea nitrogen in addition to determining the serum uric acid content.
Determination of serum uric acid: using the tungstic acid method and strictly following the determination method from the kit instructions.
Statistical treatment: all data is presented as “mean±standard deviation”, t test was performed to determine the significant difference between samples at the 95% confidence interval using SPSS 19.0 software.

For assay [3], the target named is T1, serum xanthine oxidase (XOD) (Rattus norvegicus, UniProt P22985).
T1 construct: Taking 100 μl of serum for determination of XOD; from tissue; host or cells: serum of SD male rats
T1 sequence (P22985 whole entry): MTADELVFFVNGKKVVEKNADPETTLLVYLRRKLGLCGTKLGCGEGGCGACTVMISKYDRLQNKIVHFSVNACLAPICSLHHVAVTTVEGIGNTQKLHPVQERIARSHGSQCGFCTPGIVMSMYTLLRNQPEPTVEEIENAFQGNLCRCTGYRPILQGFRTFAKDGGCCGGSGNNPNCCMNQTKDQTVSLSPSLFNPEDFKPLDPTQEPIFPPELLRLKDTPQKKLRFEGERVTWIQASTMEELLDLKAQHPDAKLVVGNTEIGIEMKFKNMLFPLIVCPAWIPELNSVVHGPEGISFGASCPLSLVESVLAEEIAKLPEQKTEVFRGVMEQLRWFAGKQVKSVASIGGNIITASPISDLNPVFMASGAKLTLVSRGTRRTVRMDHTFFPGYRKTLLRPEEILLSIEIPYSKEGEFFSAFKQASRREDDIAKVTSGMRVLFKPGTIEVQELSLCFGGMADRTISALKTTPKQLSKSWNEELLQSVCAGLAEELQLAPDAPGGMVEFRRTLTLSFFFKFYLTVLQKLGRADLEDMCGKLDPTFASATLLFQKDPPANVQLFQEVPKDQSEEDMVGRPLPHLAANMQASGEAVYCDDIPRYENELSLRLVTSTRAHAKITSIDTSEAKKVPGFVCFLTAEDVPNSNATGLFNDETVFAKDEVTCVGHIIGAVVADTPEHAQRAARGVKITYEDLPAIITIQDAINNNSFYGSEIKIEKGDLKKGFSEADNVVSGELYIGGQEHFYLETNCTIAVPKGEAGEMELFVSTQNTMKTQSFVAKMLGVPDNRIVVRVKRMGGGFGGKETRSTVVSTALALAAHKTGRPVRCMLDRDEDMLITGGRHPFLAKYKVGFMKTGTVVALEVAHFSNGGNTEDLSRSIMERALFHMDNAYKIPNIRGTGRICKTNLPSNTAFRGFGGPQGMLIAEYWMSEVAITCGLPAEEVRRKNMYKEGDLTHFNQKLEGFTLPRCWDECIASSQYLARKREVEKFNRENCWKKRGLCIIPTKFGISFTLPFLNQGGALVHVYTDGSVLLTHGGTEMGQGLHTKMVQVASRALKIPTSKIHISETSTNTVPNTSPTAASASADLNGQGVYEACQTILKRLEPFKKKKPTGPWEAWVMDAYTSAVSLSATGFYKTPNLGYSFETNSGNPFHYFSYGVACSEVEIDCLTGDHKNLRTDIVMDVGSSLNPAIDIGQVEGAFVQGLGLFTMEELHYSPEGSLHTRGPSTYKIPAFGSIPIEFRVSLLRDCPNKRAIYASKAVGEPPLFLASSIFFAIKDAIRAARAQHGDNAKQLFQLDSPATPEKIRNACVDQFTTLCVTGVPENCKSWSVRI
Put plainly: serum XOD activity in rats with hyperuricemia induced by oteracil potassium. The format is in vivo. As to conditions: 30 days, peptide samples 200 mg/kg, allopurinol 50 mg/kg.
Source text: as §1, §2, §3

For assay [4], the system named is serum adenosine deaminase (ADA). Put plainly: serum ADA activity in rats with hyperuricemia induced by oteracil potassium. As to conditions: 30 days, peptide samples 200 mg/kg, allopurinol 50 mg/kg. The assay is classed as in vivo, rat.
Source text: as §1, §2, §3

Structures are written as SMILES. Marks after values point to notes of the source that are not given here.

With `Oc1ncnc2[nH]ncc12` [Allopurinol], the Creatinine in assay [1] was 41.8 ± 13.2^b μmol/L. Also, the “effect on serum uric acid content, in words” value in assay [2] (hyperuricemia model rats, compared with model group) is “significantly decreased (p<0.01)”. For the same molecule, the “Uric acid value, before administration” value in assay [2] (serum, SD male rats after modeling with oteracil potassium 2 g/kg daily, baseline before administration) stood at 230.4 ± 19.1 µmol/L. In assay [2] (serum, gavage, peptide samples 200 mg/kg, allopurinol 50 mg/kg, 10 days), the “Uric acid value, treatment for 10 days” value is reported as 89.5 ± 22.4^b μmol/L. In addition, the “Uric acid value, treatment for 20 days” value in assay [2] (serum, gavage, peptide samples 200 mg/kg, allopurinol 50 mg/kg, 20 days) is 94.5 ± 13.9^b μmol/L. In assay [2] (serum, gavage, peptide samples 200 mg/kg, allopurinol 50 mg/kg, 30 days), the “Uric acid value, treatment for 30 days” value was 92.8 ± 20.9^b μmol/L. Further, in assay [3], the XOD is 8.61 ± 2.46^b U/L. Further, in assay [4], the ADA is 12.28 ± 7.88^b U/ml.
